In ChEMBL document CHEMBL1201862, “PubChem BioAssay data set” (2004):
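Test compounds were applied to cells in 96-well plates for 48 hours at 5 doses. The concentration for 50% growth inhibition is given as GI50.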 Active and inactive are the calls of the source. Cut-off read from the data, not from the text of the source: active = GI50 up to about 1.1 µM and inactive = higher. Square brackets hold non-standard residues; d marks the D form. Peptide text beside a SMILES is read from it. * marks the point of attachment. AllylGly = C=CC[CH](N)C(=O)O; Boc = CC(C)(C)OC(=O)*; OtBu = CC(C)(C)O*

Key:
Assay in all cases: growth of human tumour cells (NCI), 48 h
DLD-1 = tested on: DLD-1
SNB-78 = tested on: SNB-78
HOP-18 = tested on: HOP-18
M19-MEL = tested on: M19-MEL
DMS-273 = tested on: DMS-273
XF498 = tested on: XF498
T47D = tested on: T47D
MCF7 = tested on: MCF7

Q: What does the source list for `COC(=O)C(C(=O)C(=O)Nc1ccc(C)cc1)c1nc2ccc([N+](=O)[O-])cc2nc1O` (stereo not given)?
A: GI50 (DLD-1): > 100 µM (inactive); GI50 (SNB-78): > 100 µM (inactive); GI50 (HOP-18): > 100 µM (inactive); GI50 (M19-MEL): > 100 µM (inactive); GI50 (DMS-273): > 100 µM (inactive); GI50 (XF498): > 100 µM (inactive)

Q: What does the source list for `CC1CC(c2cccc3c2OCO3)=Nc2ccccc2S1` (stereo not given)?
A: GI50 (DLD-1): > 100 µM (inactive); GI50 (SNB-78): > 100 µM (inactive); GI50 (M19-MEL): > 100 µM (inactive); GI50 (DMS-273): > 100 µM (inactive); GI50 (XF498): > 100 µM (inactive)

Q: Which GI50 (SNB-78) does the source give for `COc1cc(/C=C(\C#N)C(=O)c2ccccc2)ccc1OCc1ccccc1` here?
A: > 100 µM (inactive)

Q: And the GI50 (M19-MEL)?
A: > 100 µM (inactive)

Q: What about the GI50 (XF498) of the same molecule?
A: > 100 µM (inactive)

Q: `COc1cc(OC)c2c(c1OC)OCC(Cc1ccc(O)cc1)C2=O` (stereo not given) was tested. Which GI50 (T47D) did it give?
A: 8.3 µM (inactive)

Q: How did the GI50 (DLD-1) turn out when `CN(C)c1ccc(-c2nc(N)nc3c2CCCC3)cc1` was run?
A: 54.5 µM (inactive)

Q: What about the GI50 (SNB-78) of the same molecule?
A: 64.7 µM (inactive)

Q: What about the GI50 (M19-MEL) of the same molecule?
A: 45 µM (inactive)

Q: And the GI50 (DMS-273)?
A: 50.2 µM (inactive)

Q: And the GI50 (XF498)?
A: 19.4 µM (inactive)

Q: What does the source list for `COc1cc(C(c2cccc3ccccc23)N2C(=O)CCC2C(=O)NCc2ccccc2)cc(OC)c1OC` (stereo not given)?
A: GI50 (MCF7): > 100 µM (inactive); GI50 (T47D): > 100 µM (inactive)

Q: How did the GI50 (MCF7) turn out when `COC(=O)C1=C(OC(=O)/C=C/c2ccccc2)C(C(=O)OC)[C@@]2(O)[C@@H](C(=O)OC)[C@H](C)C[C@@H]1[C@@H]2C(=O)OC` (stereo not given in full) was run?
A: 19.3 µM (inactive)

Q: What about the GI50 (T47D) of the same molecule?
A: 24.5 µM (inactive)

Q: For `Nc1ncnc2c1nnn2C1C=C(CO)C(O)C1O` (stereo not given), which GI50 (DLD-1) is on record?
A: 35.2 µM (inactive)

Q: And the GI50 (SNB-78)?
A: > 86.7 µM (inactive)

Q: And the GI50 (HOP-18)?
A: 95.3 µM (inactive)

Q: And the GI50 (M19-MEL)?
A: > 79.1 µM (inactive)

Q: What about the GI50 (DMS-273) of the same molecule?
A: 44 µM (inactive)

Q: And the GI50 (XF498)?
A: > 100 µM (inactive)

Q: Which GI50 (MCF7) does the source give for `C[C@@H]1S[C@H](c2c(F)cccc2Cl)n2c1nc1ccccc12` here?
A: 25.2 µM (inactive)

Q: And the GI50 (T47D)?
A: 22.5 µM (inactive)

Q: What does the source list for `OCC1OC(n2cnc3c(SCc4ccccc4)ncnc32)C(O)C1O` (stereo not given)?
A: GI50 (MCF7): 3.08 µM (inactive); GI50 (T47D): 40.5 µM (inactive)

Q: How did the GI50 (MCF7) turn out when `CC12CC3(O)OC(O1)C1(COC(=O)c4ccccc4)C3CC21OC1OC(CO)C(O)C(O)C1O` (stereo not given) was run?
A: > 100 µM (inactive)

Q: And the GI50 (T47D)?
A: > 100 µM (inactive)

Q: Which GI50 (MCF7) does the source give for `Cc1nn(C(=O)Cc2ccccc2)c2c1C(c1ccccc1[N+](=O)[O-])SC(=N)N2` (stereo not given) here?
A: > 100 µM (inactive)

Q: What about the GI50 (T47D) of the same molecule?
A: > 100 µM (inactive)

Q: Which results are given for `O=C1CCc2cc3c(cc21)C(C(=O)O)CC3` (stereo not given)?
A: GI50 (MCF7): > 100 µM (inactive); GI50 (T47D): > 100 µM (inactive)

Q: Which results are given for `Cc1ccc(/N=N/c2c(O)ccc3cc(S(=O)(=O)O)cc(S(=O)(=O)O)c23)cc1`?
A: GI50 (MCF7): > 100 µM (inactive); GI50 (T47D): > 100 µM (inactive)

Q: How did the GI50 (MCF7) turn out when `c1ccc(C2(c3cc4ccccc4[nH]3)OCCO2)cc1` was run?
A: 31 µM (inactive)

Q: What about the GI50 (T47D) of the same molecule?
A: 59.8 µM (inactive)

Q: `CCOC(=O)c1c(NC(=O)c2ccccc2)c(C#N)c2n1CCCCC2` was tested. Which GI50 (MCF7) did it give?
A: > 100 µM (inactive)

Q: What about the GI50 (T47D) of the same molecule?
A: > 100 µM (inactive)

Q: `CC(C)[C@@H](COC(C)(C)C)/N=C/N1CCc2c([nH]c3ccccc23)C1` was tested. Which GI50 (DLD-1) did it give?
A: > 100 µM (inactive)

Q: What about the GI50 (SNB-78) of the same molecule?
A: > 100 µM (inactive)

Q: What about the GI50 (DMS-273) of the same molecule?
A: > 100 µM (inactive)

Q: What about the GI50 (XF498) of the same molecule?
A: 36.1 µM (inactive)

Q: For `CCOC(=O)CN1C(=O)c2ccc(NC(=O)C(=O)O)cc2S1(=O)=O`, which GI50 (MCF7) is on record?
A: > 100 µM (inactive)

Q: What about the GI50 (T47D) of the same molecule?
A: > 100 µM (inactive)

Q: How did the GI50 (T47D) turn out when `COc1ccc(/C=C2\OC(=O)C(Cl)=C2c2ccc(OC)cc2)cc1` was run?
A: > 100 µM (inactive)

Q: `Cc1ccc2c3ccc4c(c3n(C)c2c1)C(=O)C=CC4=O` was tested. Which GI50 (MCF7) did it give?
A: 3.29 µM (inactive)

Q: And the GI50 (T47D)?
A: 2.43 µM (inactive)

Q: How did the GI50 (MCF7) turn out when `CCN(CC)CCC(=O)c1ccc(Cl)c(Cl)c1` was run?
A: 12.8 µM (inactive)

Q: What about the GI50 (T47D) of the same molecule?
A: 18.6 µM (inactive)

Q: For `c1csc(-c2cscc2-c2ccsc2)c1`, which GI50 (MCF7) is on record?
A: 30.6 µM (inactive)

Q: What about the GI50 (T47D) of the same molecule?
A: > 55.1 µM (inactive)

Q: Which results are given for `COc1cc(S(=O)(=O)Nc2nc(-c3ccc(/N=C/c4cccs4)cc3)cs2)ccc1Cl`?
A: GI50 (MCF7): 36.6 µM (inactive); GI50 (T47D): 84.3 µM (inactive)

Q: What does the source list for `NS(=O)(=O)c1ccc(NC(=O)c2cc([N+](=O)[O-])cc([N+](=O)[O-])c2)cc1`?
A: GI50 (MCF7): 19.5 µM (inactive); GI50 (T47D): 18.8 µM (inactive)

Q: What does the source list for `C=CCC(NC(=O)C(CC(=O)OC(C)(C)C)NC(=O)OC(C)(C)C)C(=O)OC` (stereo not given) (Boc-Asp(OtBu)-[AllylGly]-OMe; configuration not given here)?
A: GI50 (MCF7): 55.8 µM (inactive); GI50 (T47D): 37.6 µM (inactive)

Q: With `CN(C)CC/C(=N\Nc1ccc(Cl)cc1)c1ccccc1` as the molecule, how does the GI50 (DLD-1) read?
A: 0.409 µM (active)

Q: What about the GI50 (SNB-78) of the same molecule?
A: 1.38 µM (inactive)

Q: What about the GI50 (HOP-18) of the same molecule?
A: 2.13 µM (inactive)

Q: And the GI50 (M19-MEL)?
A: 1.7 µM (inactive)

Q: And the GI50 (DMS-273)?
A: 0.366 µM (active)

Q: How did the GI50 (MCF7) turn out when `O=C(O)CNC(=O)CO/N=C1/C(=C2/C(=O)Nc3ccccc32)Nc2ccccc21` was run?
A: 72.4 µM (inactive)

Q: What about the GI50 (T47D) of the same molecule?
A: 56.9 µM (inactive)

Q: Which results are given for `C(/Cc1ccc2c(c1)OCO2)=N\N=C1NCCN1`?
A: GI50 (MCF7): > 100 µM (inactive); GI50 (T47D): 90.6 µM (inactive)

Q: With `CCCc1c(C(=O)OCC)[nH]c(C(=O)CCC(=O)c2[nH]c(C(=O)OCC)c(CCC)c2C(=O)OCC)c1C(=O)OCC` as the molecule, how does the GI50 (DLD-1) read?
A: > 100 µM (inactive)

Q: And the GI50 (SNB-78)?
A: > 100 µM (inactive)

Q: And the GI50 (HOP-18)?
A: > 100 µM (inactive)

Q: And the GI50 (M19-MEL)?
A: > 100 µM (inactive)

Q: What about the GI50 (DMS-273) of the same molecule?
A: 84.5 µM (inactive)

Q: What about the GI50 (XF498) of the same molecule?
A: 54.3 µM (inactive)

Q: Which results are given for `C=CCOCn1ccc(N)nc1=O`?
A: GI50 (MCF7): > 100 µM (inactive); GI50 (T47D): > 100 µM (inactive)

Q: With `O=C(/N=c1/[nH]/c(=N/C(=O)c2ccccc2)ss1)c1ccccc1` as the molecule, how does the GI50 (SNB-78) read?
A: 48.1 µM (inactive)

Q: What about the GI50 (M19-MEL) of the same molecule?
A: 33.6 µM (inactive)

Q: And the GI50 (DMS-273)?
A: 23.1 µM (inactive)
